Here are results for 18 compounds from US9481676B2, “Azepino[4,5-B]indoles and methods of use” (Medivation Technologies, Inc., priority 2008, dated 2016).

The test concerns the target T1, human recombinant adrenergic α2A receptor (Homo sapiens, UniProt P08913).
T1 construct: expressed in transfected cells; host or cells: insect Sf9 cells
T1 sequence (P08913 1-465): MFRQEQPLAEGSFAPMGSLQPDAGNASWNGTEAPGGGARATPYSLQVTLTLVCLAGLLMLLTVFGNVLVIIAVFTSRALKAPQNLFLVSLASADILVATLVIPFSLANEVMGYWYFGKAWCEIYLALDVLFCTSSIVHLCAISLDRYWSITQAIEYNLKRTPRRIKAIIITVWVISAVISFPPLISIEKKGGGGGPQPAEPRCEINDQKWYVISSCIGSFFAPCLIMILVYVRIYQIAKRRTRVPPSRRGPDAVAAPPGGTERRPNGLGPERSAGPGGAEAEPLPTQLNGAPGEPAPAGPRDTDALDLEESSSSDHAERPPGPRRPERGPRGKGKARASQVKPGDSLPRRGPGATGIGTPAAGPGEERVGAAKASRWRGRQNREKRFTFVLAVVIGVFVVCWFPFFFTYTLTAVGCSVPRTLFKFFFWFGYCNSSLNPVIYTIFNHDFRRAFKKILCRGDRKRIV
Description: Adrenergic alpha2A radioligand binding ([3H]MK-912). To be noted: compound at 1 μM; read-out: Adrenergic (1 μM) α2A, percent inhibition of specific binding. The method in brief: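 Membranes of Sf9 cells expressing human recombinant α2A receptor were incubated with compound and 1 nM [3H]MK-912 for 60 min at 25 °C in 50 mM Tris-HCl pH 7.4, 12.5 mM MgCl2, 2 mM EDTA. Nonspecific binding: 10 μM WB-4101.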
A word on the inhibition: it is the change of the read-out against control, counted positive when it falls. In the case of `Cc1ccc2c(c1)c1c(n2CC(=O)Nc2ccccc2)CCN(C)CC1` [Compound No. 79, 2-(2,3,4,5-tetrahydro-3,9-dimethylazepino[4,5-b]indol-6(1H)-yl)-N-phenylacetamide], the inhibition at 1 µM worked out at 17%.

Turning to `C/C(=C/n1c2c(c3cc(C)ccc31)CCN(C)CC2)c1ccc(Cl)cc1Cl` [Compound No. 174, (Z)-6-(2-(2,4-dichlorophenyl)prop-1-enyl)-1,2,3,4,5,6-hexahydro-3,9-dimethylazepino[4,5-b]indole], the inhibition at 1 µM came to 101%.

As for `COc1ccc(C(O)Cn2c3c(c4cc(Cl)ccc42)CCN(C)CC3)cc1OC` (stereo not drawn) [Compound No. 77, 2-(9-chloro-2,3,4,5-tetrahydro-3-methylazepino[4,5-b]indol-6(1H)-yl)-1-(3,4-dimethoxyphenyl)ethanol], the inhibition at 1 µM was found to be 85%.

Turning to `CN1CCc2c(n(CCc3ccc(C(F)(F)F)nc3)c3ccc(Cl)cc23)CC1` [Compound No. 1, 9-chloro-6-(2-(6-(trifluoromethyl)pyridin-3-yl)ethyl)-1,2,3,4,5,6-hexahydro-3-methylazepino[4,5-b]indole], the inhibition at 1 µM came out at 90%.

With `COc1ccc(C(O)Cn2c3c(c4cc(C)ccc42)CCN(C)CC3)cc1OC` (stereo not drawn) [Compound No. 227, 1-(3,4-dimethoxyphenyl)-2-(3,9-dimethyl-2,3,4,5-tetrahydroazepino[4,5-b]indol-6(1H)-yl)ethanol], the inhibition at 1 µM is 70%.

Regarding `COc1ccc(/C=C/n2c3c(c4cc(C)ccc42)CCN(C)CC3)cc1F` [Compound No. 180, (E)-6-(3-fluoro-4-methoxystyryl)-1,2,3,4,5,6-hexahydro-3,9-dimethylazepino[4,5-b]indole], the inhibition at 1 µM was found to be 99%.

With `COc1ccc(/C=C/n2c3c(c4cc(Cl)ccc42)CCN(C)CC3)cc1` [Compound No. 78, 6-(4-methoxystyryl)-9-chloro-1,2,3,4,5,6-hexahydro-3-methylazepino[4,5-b]indole], the inhibition at 1 µM turned out to be 83%.

`C/C(=C\n1c2c(c3cc(Cl)ccc31)CCN(C)CC2)c1ccc(F)cc1` [Compound No. 2, 9-chloro-6-((E)-2-(4-fluorophenyl)prop-1-enyl)-1,2,3,4,5,6-hexahydro-3-methylazepino[4,5-b]indole]: the inhibition at 1 µM was 96%.

Turning to `C=C(Cn1c2c(c3cc(Cl)ccc31)CCN(C)CC2)c1ccc(F)cc1` [Compound No. 82, 9-chloro-6-(2-(4-fluorophenyl)allyl)-3-methyl-1,2,3,4,5,6-hexahydroazepino[4,5-b]indole], the inhibition at 1 µM was 96%.

Regarding `CC1CCN(C(=O)Cn2c3c(c4cc(Cl)ccc42)CCN(C)CC3)CC1` [Compound No. 76, 2-(9-chloro-2,3,4,5-tetrahydro-3-methylazepino[4,5-b]indol-6(1H)-yl)-1-(4-methylpiperidin-1-yl)ethanone], the inhibition at 1 µM worked out at 7%.

For the compound `Cc1ccc2c(c1)c1c(n2CC(=O)N2CCC(C)CC2)CCN(C)CC1` [Compound No. 225, 2-(3,9-dimethyl-2,3,4,5-tetrahydroazepino[4,5-b]indol-6(1H)-yl)-1-(4-methylpiperidin-1-yl)ethanone], the inhibition at 1 µM worked out at 0%.

Regarding `CN1CCc2c(n(/C=C/c3ccccc3)c3ccc(Cl)cc23)CC1` [Compound No. 228, (E)-9-chloro-3-methyl-6-styryl-1,2,3,4,5,6-hexahydroazepino[4,5-b]indole], the inhibition at 1 µM stood at 102%.

`COc1ccc(/C=C/n2c3c(c4cc(Cl)ccc42)CCN(C)CC3)cc1F` [Compound No. 158, (E)-6-(3-fluoro-4-methoxystyryl)-9-chloro-1,2,3,4,5,6-hexahydro-3-methylazepino[4,5-b]indole]: the inhibition at 1 µM is 99%.

For the compound `C/C(=C/n1c2c(c3cc(Cl)ccc31)CCN(C)CC2)c1ccc(Cl)cc1Cl` [Compound No. 152, (Z)-9-chloro-6-(2-(2,4-dichlorophenyl)prop-1-enyl)-1,2,3,4,5,6-hexahydro-3-methylazepino[4,5-b]indole], the inhibition at 1 µM was determined as 93%.

`COc1ccc(/C=C/n2c3c(c4cc(Cl)ccc42)CCN(C)CC3)cc1OC` [Compound No. 226, (E)-9-chloro-6-(3,4-dimethoxystyryl)-3-methyl-1,2,3,4,5,6-hexahydroazepino[4,5-b]indole]: the inhibition at 1 µM was 93%.

`CN1CCc2c(n(/C=C/c3ccccc3F)c3ccc(Cl)cc23)CC1` [Compound No. 83, (E)-9-chloro-6-(2-fluorostyryl)-3-methyl-1,2,3,4,5,6-hexahydro azepino[4,5-b]indole]: the inhibition at 1 µM was determined as 99%.

As to `Cc1ccc2c(c1)c1c(n2CC(=O)N2CCNCC2)CCN(C)CC1` [Compound No. 224, 2-(3,9-dimethyl-2,3,4,5-tetrahydroazepino[4,5-b]indol-6(1H)-yl)-1-(piperazin-1-yl)ethanone], the inhibition at 1 µM was determined as 8%.

For `Cc1cncc(CCn2c3c(c4cc(Cl)ccc42)CCN(C)CC3)c1` [Compound No. 3, 9-chloro-3-methyl-6-(2-(5-methylpyridin-3-yl)ethyl)-1,2,3,4,5,6-hexahydroazepino[4,5-b]indole], the inhibition at 1 µM is 91%.
